Results taken from patent US9938261B2, “Heterocyclic compounds and methods of use thereof” (AMBIT BIOSCIENCES CORPORATION, priority 2011, dated 2018).
Like-named read-outs stand apart in the source and are kept apart here.

Tests used:
M-NFS-60 cells = assay: M-NFS-60 cell proliferation assay (Alamar Blue); assay type: cell-based, mouse; details: Mus musculus, read-out: CSF1R M-NFS-60 CTB:IC50
In short: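 Alamar Blue reduction (3 h; 560/590 nm) measured viability after 72 h, 37 °C treatment with nine half-log compound concentrations at 0.5% DMSO. Cells: M-CSF-dependent (20 ng/mL) murine M-NFS-60 in RPMI plus 10% FBS. IC50s, averaged from duplicates, reflect half-maximal inhibition of proliferation relative to control.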

[1] = target: kinase panel containing either 386 or 392 distinct kinases; assay: Kinase selectivity score S10 from competition binding panel
Description: Competition binding assays used herein were developed, validated and performed as described in Fabian et al., Nature Biotechnology 2005, 23, 329-336. Kinases were produced as fusions to T7 phage (See, Fabian et al. or WO04/015142) or alternatively, the kinases were expressed in HEK-293 cells and subsequently tagged with DNA for PCR detection (See, WO08/005310). For the binding assays, streptavidin-coated magnetic beads were treated with biotinylated affinity ligands for 30 min at room temperature to generate affinity resins. The liganded beads were blocked with excess biotin and washed with blocking buffer (SeaBlock (Pierce), 1% BSA, 0.05% Tween 20, 1 mM DTT) to remove unbound ligand and to reduce non-specific binding. Binding reactions were assembled by combining kinase, liganded affinity beads, and test compounds in 1× binding buffer (20% SeaBlock, 0.17×PBS, 0.05% Tween 20, 6 mM DTT). Test compounds were prepared as 100× stocks in DMSO and diluted into the aqueous environment. Kds were determined using an eleven point threefold serial dilutions. DMSO or control compounds were was added to control assays lacking a test compound. Primary screen assays were performed in polypropylene 384-well plates in a final volume of 20-40 μL, while Kd determinations were performed in polystyrene 96-well plates in a final volume of 135 μL. The assay plates were incubated at room temperature with shaking for 1 hour to allow the binding reactions to reach equilibrium, and the affinity beads were washed extensively with wash buffer (1×PBS, 0.05% Tween 20) to remove unbound protein. The beads were then resuspended in elution buffer (1×PBS, 0.05% Tween […] non-biotinylated affinity ligand) and incubated at room temperature with shaking for 30 min. The kinase concentration in the eluates was measured by quantitative PCR.
A selectivity score (S10) is a quantitative measure of selectivity of a compound against a panel of kinases. An S10 was calculated for a compound by dividing the number of kinases found to have a percent of control (DMSO) less than 10 by the total number of distinct kinases tested (excluding mutant variants). Percent of control (POC) is calculated by subtracting the signal of the control compound (POC=0) from the signal of the test compound and dividing the outcome by the signal of DMSO (POC=100) minus the signal of the control compound. For the compounds disclosed herein, S10 scores were obtained by testing the compounds at 10 μM concentration in a kinase panel containing either 386 or 392 distinct kinases.

CSF1R = CSF1R (Homo sapiens, UniProt P07333); assay: Competition binding assay, CSF1R Kd; design: made in house
CSF1R, sequence (P07333 20-972): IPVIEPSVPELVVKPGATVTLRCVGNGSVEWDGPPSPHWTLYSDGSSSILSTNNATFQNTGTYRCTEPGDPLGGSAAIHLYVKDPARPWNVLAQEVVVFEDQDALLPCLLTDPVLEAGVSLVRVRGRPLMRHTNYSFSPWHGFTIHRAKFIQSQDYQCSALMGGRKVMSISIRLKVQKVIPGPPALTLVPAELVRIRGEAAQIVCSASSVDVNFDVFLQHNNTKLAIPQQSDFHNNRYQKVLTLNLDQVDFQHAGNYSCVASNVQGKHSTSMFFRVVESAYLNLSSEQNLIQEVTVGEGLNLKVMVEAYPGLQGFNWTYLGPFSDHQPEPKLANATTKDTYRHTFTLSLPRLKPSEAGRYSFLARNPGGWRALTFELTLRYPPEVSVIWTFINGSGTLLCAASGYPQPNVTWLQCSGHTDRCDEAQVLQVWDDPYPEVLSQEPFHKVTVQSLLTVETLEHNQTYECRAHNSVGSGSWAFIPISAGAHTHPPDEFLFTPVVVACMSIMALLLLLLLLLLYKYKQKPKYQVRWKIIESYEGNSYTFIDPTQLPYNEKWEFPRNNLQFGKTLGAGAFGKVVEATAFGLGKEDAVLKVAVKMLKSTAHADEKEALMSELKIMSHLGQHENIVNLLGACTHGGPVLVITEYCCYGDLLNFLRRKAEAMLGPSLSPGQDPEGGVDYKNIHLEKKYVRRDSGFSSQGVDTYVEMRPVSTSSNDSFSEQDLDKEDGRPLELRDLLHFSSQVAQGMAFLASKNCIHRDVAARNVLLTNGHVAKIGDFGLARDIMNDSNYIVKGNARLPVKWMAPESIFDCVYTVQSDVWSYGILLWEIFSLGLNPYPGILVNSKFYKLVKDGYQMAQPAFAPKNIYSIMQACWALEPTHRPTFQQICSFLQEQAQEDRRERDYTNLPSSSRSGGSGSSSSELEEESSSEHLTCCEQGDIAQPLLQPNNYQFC
In short: (§1)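 First, biotinylated affinity ligands were loaded onto streptavidin magnetic beads and blocked. Kinase, beads and compound were then equilibrated 1 hour at room temperature, washed, and eluted with non-biotinylated ligand. Eluted kinase was measured by qPCR, with Kd fitted from an eleven-point threefold dilution series.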

PDGFRβ = target: T1, PDGFRβ (Homo sapiens, UniProt P09619); assay: Competition binding assay, PDGFRβ Kd
T1 construct: made in house
T1 sequence (P09619 33-1106): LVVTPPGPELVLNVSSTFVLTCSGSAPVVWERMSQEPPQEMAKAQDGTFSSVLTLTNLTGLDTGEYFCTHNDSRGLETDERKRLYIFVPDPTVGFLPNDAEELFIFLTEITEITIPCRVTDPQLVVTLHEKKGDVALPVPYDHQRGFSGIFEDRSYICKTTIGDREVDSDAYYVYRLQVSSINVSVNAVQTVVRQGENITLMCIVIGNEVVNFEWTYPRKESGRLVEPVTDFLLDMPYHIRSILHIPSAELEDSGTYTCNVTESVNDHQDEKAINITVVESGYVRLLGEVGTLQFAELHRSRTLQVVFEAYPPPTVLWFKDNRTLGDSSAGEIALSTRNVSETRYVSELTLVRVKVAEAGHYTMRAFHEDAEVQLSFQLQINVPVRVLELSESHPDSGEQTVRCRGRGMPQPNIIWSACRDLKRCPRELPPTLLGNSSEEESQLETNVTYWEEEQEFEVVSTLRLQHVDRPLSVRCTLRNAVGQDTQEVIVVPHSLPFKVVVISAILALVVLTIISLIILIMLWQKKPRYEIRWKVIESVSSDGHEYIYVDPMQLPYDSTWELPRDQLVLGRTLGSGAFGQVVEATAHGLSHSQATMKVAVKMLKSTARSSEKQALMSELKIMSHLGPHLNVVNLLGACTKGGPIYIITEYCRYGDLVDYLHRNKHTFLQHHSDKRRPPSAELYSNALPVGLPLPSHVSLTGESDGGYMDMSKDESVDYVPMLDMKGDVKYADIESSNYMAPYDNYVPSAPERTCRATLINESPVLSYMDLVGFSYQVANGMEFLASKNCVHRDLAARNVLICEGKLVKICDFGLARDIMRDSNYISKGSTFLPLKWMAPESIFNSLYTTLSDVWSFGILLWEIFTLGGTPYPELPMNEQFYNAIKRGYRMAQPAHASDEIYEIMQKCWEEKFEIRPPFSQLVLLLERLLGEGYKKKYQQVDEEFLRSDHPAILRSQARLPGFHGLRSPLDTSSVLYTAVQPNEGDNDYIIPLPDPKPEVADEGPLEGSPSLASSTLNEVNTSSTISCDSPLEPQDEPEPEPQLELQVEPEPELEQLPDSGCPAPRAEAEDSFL
In short: as §1

KIT = target: T2, KIT (Homo sapiens, UniProt P10721); assay: Competition binding assay, KIT Kd
T2 construct: made in house
T2 sequence (P10721 26-976): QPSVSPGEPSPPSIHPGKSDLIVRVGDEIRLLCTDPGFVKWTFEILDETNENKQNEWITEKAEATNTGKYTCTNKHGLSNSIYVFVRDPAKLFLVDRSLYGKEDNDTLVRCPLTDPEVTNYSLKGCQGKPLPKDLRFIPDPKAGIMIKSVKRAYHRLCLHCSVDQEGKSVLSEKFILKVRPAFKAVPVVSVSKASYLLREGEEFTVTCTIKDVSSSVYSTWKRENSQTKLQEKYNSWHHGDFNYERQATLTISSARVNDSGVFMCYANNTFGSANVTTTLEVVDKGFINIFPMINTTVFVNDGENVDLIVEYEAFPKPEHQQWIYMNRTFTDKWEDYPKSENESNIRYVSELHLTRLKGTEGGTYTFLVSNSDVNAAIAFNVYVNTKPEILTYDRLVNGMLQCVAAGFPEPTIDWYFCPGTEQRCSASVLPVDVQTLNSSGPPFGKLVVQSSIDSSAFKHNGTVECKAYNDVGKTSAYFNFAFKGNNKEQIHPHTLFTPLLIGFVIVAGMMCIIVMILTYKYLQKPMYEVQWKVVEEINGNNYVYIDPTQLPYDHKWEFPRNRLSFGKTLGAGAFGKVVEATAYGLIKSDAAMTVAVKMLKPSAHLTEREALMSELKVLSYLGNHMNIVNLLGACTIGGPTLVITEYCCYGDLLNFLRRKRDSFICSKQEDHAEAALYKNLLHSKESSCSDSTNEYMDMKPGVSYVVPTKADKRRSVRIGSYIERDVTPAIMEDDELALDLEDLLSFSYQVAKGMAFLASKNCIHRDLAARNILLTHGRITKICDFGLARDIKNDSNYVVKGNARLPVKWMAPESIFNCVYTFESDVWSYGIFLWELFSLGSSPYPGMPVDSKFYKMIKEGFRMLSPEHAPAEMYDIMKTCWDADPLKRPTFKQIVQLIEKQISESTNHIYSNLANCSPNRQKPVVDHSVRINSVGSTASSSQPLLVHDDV
In short: as §1

FLT3 = target: T3, FLT3 (Homo sapiens, UniProt P36888); assay: Competition binding assay, FLT3 Kd
T3 construct: made in house
T3 sequence (P36888 27-993): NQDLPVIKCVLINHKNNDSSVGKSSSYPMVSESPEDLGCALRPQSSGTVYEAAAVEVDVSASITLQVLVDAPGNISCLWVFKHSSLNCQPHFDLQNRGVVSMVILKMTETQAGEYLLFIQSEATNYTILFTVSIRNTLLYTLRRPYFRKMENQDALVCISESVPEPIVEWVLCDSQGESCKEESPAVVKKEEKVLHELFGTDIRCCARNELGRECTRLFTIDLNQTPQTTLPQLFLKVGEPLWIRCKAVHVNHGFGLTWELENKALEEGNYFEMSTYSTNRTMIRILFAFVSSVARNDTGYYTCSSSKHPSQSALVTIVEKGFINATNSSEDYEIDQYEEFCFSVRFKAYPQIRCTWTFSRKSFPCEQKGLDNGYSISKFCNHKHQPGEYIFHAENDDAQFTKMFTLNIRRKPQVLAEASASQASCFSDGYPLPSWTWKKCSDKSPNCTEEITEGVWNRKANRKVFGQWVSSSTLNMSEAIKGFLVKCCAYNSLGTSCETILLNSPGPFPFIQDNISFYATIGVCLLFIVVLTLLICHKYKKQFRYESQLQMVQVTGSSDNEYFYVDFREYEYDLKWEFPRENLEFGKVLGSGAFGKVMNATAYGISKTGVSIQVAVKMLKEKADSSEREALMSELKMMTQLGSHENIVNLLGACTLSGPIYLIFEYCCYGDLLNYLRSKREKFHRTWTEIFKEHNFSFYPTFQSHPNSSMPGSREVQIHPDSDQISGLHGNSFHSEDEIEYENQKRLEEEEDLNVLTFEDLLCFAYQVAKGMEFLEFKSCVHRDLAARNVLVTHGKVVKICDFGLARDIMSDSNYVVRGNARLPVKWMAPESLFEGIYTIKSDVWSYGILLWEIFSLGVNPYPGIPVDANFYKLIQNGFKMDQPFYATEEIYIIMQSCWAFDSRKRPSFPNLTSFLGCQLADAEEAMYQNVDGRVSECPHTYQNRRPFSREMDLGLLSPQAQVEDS
In short: as §1

[2] = 72 hours incubation, M-CSF 20 ng/mL
[3] = compounds at 10 μM, 386 or 392 distinct kinases
[4] = 10 μM, panel of 386 or 392 distinct kinases

Row | SMILES | Kinase specificity S(10) [1, 3] | Kd (CSF1R) | Kd (PDGFRβ) | Kd (KIT) | Kd (FLT3) | Kinase specificity S(10) [1, 4] | Kd (CSF1R; competition binding) | Kd (PDGFRβ; competition binding) | Kd (KIT; competition binding) | Kd (FLT3; competition binding) | IC50 (M-NFS-60 cells; [2]) | IC50 (M-NFS-60 cells; M-NFS-60 cell proliferation)
1 | O[C@@H]1CCCC[C@H]1Nc1nc2ccc(Cc3cnc4ccccn34)cc2s1 [Example 38, (1R,2R)-2-((6-(imidazo[1,2-a]pyridin-3-ylmethyl)benzo[d]thiazol-2-yl)amino)cyclohexanol] | A (A≤0.01) | 20 to 50 nM | > 2000 nM | 500 to 2000 nM | > 5000 nM | – | – | – | – | – | 400 to 1500 nM | –
2 | O[C@@H]1CCCC[C@H]1Nc1nc2ccc(Cn3cnc4cc(-c5cccnc5)cnc43)cc2s1 [Example 40, (1R,2R)-2-((6-((6-(pyridin-3-yl)-3H-imidazo[4,5-b]pyridin-3-yl)methyl)benzo[d]thiazol-2-yl)amino)cyclohexanol] | B (0.01<B≤0.02) | ≤ 5 nM | ≤ 50 nM | ≤ 100 nM | ≤ 200 nM | – | – | – | – | – | ≤ 50 nM | –
3 | COc1cc2c(cc1Br)ncn2Cc1ccc2nc(N[C@@H]3c4ccccc4C[C@H]3O)sc2c1 [Example 49, (1R,2R)-1-((6-((5-bromo-6-methoxy-1H-benzo[d]imidazol-1-yl)methyl)benzo[d]thiazol-2-yl)amino)-2,3-dihydro-1H-inden-2-ol] | A (A≤0.01) | 5 to 20 nM | 500 to 2000 nM | 500 to 2000 nM | 1000 to 5000 nM | – | – | – | – | – | 50 to 400 nM | –
4 | N#Cc1cnc2c(c1)ncn2Cc1ccc2nc(N[C@@H]3CCCC[C@H]3O)sc2c1 [Example 43, 3-((2-(((1R,2R)-2-hydroxycyclohexyl)amino)benzo[d]thiazol-6-yl)methyl)-3H-imidazo[4,5-b]pyridine-6-carbonitrile] | B (0.01<B≤0.02) | 5 to 20 nM | 50 to 500 nM | 100 to 500 nM | 1000 to 5000 nM | – | – | – | – | – | 50 to 400 nM | –
5 | CON=C(C)c1ccn2c(Cc3ccc4nc(N[C@@H]5CCCC[C@H]5O)sc4c3)cnc2c1 [Example 204, 1-(3-((2-(((1R,2R)-2-hydroxycyclohexyl)amino)benzo[d]thiazol-6-yl)methyl)imidazo[1,2-a]pyridin-7-yl)ethanone O-methyl oxime] | – | – | – | – | – | A (A≤0.01) | 5 to 20 nM | 50 to 500 nM | 100 to 500 nM | 1000 to 5000 nM | – | 50 to 400 nM
6 | OCc1cnc2c(c1)ncn2Cc1ccc2nc(N[C@@H]3CCCC[C@H]3O)sc2c1 [Example 84, (1R,2R)-2-((6-((6-(hydroxymethyl)-3H-imidazo[4,5-b]pyridin-3-yl)methyl)benzo[d]thiazol-2-yl)amino)cyclohexanol] | A (A≤0.01) | 5 to 20 nM | 50 to 500 nM | 100 to 500 nM | 1000 to 5000 nM | – | – | – | – | – | 50 to 400 nM | –
7 | O[C@@H]1Cc2ccccc2[C@H]1Nc1nc2ccc(Cn3cnc4ccc(Br)nc43)cc2s1 [Example 80, (1R,2R)-1-((6-((5-bromo-3H-imidazo[4,5-b]pyridin-3-yl)methyl)benzo[d]thiazol-2-yl)amino)-2,3-dihydro-1H-inden-2-ol] | B (0.01<B≤0.02) | 5 to 20 nM | ≤ 50 nM | ≤ 100 nM | 200 to 1000 nM | – | – | – | – | – | ≤ 50 nM | –
8 | CSCc1cnc2c(c1)ncn2Cc1ccc2nc(N[C@@H]3CCCC[C@H]3O)sc2c1 [Example 86, (1R,2R)-2-((6-((6-((methylthio)methyl)-3H-imidazo[4,5-b]pyridin-3-yl)methyl)benzo[d]thiazol-2-yl)amino)cyclohexanol] | C (C>0.02) | 5 to 20 nM | ≤ 50 nM | ≤ 100 nM | 200 to 1000 nM | – | – | – | – | – | 50 to 400 nM | –

Second part, led by results:

Row | Kinase specificity S(10) [1, 3] | Kd (CSF1R) | Kd (PDGFRβ) | Kd (KIT) | Kd (FLT3) | Kinase specificity S(10) [1, 4] | Kd (CSF1R; competition binding) | Kd (PDGFRβ; competition binding) | Kd (KIT; competition binding) | Kd (FLT3; competition binding) | SMILES | IC50 (M-NFS-60 cells; [2]) | IC50 (M-NFS-60 cells; M-NFS-60 cell proliferation)
9 | – | – | – | – | – | A (A≤0.01) | 5 to 20 nM | 50 to 500 nM | 500 to 2000 nM | > 5000 nM | CC(=O)c1ccn2c(Cc3ccc4nc(N[C@@H]5CCCC[C@H]5O)sc4c3)cnc2c1 [Example 200, 1-(3-((2-(((1R,2R)-2-hydroxycyclohexyl)amino)benzo[d]thiazol-6-yl)methyl)imidazo[1,2-a]pyridin-7-yl)ethanone] | – | 50 to 400 nM
10 | – | – | – | – | – | B (0.01<B≤0.02) | ≤ 5 nM | 50 to 500 nM | 100 to 500 nM | > 5000 nM | O[C@@H]1CCCC[C@H]1Nc1nc2ccc(Cc3cnc4cc(-n5ccnc5)ccn34)cc2s1 [Example 214, (1R,2R)-2-((6-((7-(1H-imidazol-1-yl)imidazo[1,2-a]pyridin-3-yl)methyl)benzo[d]thiazol-2-yl)amino)cyclohexanol] | – | 50 to 400 nM
11 | B (0.01<B≤0.02) | ≤ 5 nM | ≤ 50 nM | ≤ 100 nM | 200 to 1000 nM | – | – | – | – | – | CSc1cnc2c(c1)ncn2Cc1ccc2nc(N[C@@H]3CCCC[C@H]3O)sc2c1 [Example 85, (1R,2R)-2-((6-((6-(methylthio)-3H-imidazo[4,5-b]pyridin-3-yl)methyl)benzo[d]thiazol-2-yl)amino)cyclohexanol] | ≤ 50 nM | –
12 | C (C>0.02) | 5 to 20 nM | ≤ 50 nM | ≤ 100 nM | ≤ 200 nM | – | – | – | – | – | O[C@@H]1CCCC[C@H]1Nc1nc2ccc(Cn3cnc4cc(Br)cnc43)cc2o1 [Example 61, (1R,2R)-2-((6-((6-bromo-3H-imidazo[4,5-b]pyridin-3-yl)methyl)benzo[d]oxazol-2-yl)amino)cyclohexanol] | ≤ 50 nM | –
13 | – | – | – | – | – | A (A≤0.01) | ≤ 5 nM | 50 to 500 nM | 100 to 500 nM | 200 to 1000 nM | N#CCOc1ccc2c(c1)ncn2Cc1ccc2nc(N[C@@H]3CCCC[C@H]3O)sc2c1 [Example 196, 2-((1-((2-(((1R,2R)-2-hydroxycyclohexyl)amino)benzo[d]thiazol-6-yl)methyl)-1H-benzo[d]imidazol-5-yl)oxy)acetonitrile] | – | 50 to 400 nM
14 | B (0.01<B≤0.02) | ≤ 5 nM | ≤ 50 nM | 100 to 500 nM | 1000 to 5000 nM | – | – | – | – | – | O[C@@H]1Cc2ccccc2[C@H]1Nc1nc2ccc(Cn3cnc4cccnc43)cc2s1 [Example 46, (1R,2R)-1-((6-((3H-imidazo[4,5-b]pyridin-3-yl)methyl)benzo[d]thiazol-2-yl)amino)-2,3-dihydro-1H-inden-2-ol] | 50 to 400 nM | –
